Assay results reported in patent US20130060023A1, “Compounds useful for treating neurodegenerative disorders” (Satori Pharmaceuticals, Inc., priority 2011, published 2013).
Where two headings read alike, the source gives them in different places.

Columns and labels:
Assay type in all cases: cell-based
Conditions in all cases: Homo sapiens, 5 hours at 37° C., 1% DMSO
Aβ-42 = Aβ-42 level in conditioned media of 2B7 cells, MSD 3-PLEX ELISA
Method: (§1) Assays were conducted to determine the ability of a Compound of Formula I to modulate […], […], and Aβ-38. μELISA Plates: Human (6E10) Ab 3-PLEX ELISA kits were purchased from Meso Scale Discovery Labs, 9328 Gaither Road, Gaithersburg, Md. 20877 (Catalog Number […]-3). Plates with capture antibodies were blocked for 1-2 hours at room temperature with 150 μL of the manufactures blocking reagent. Conditioned Media: Cultured 2B7 cells in 96 well plate with 250 μL of media per well until confluent; Prepared serial dilutions of compounds in DMSO at 100× the final desired concentration; Washed wells with 2B7 cells 1× with 250 μL of media; Diluted DMSO stocks 1:100 into media: • Added 250 μL of media containing compounds (1% DMSO) to wells with 2B7 cells for 5 hours at 37° C. ELISA Sample Prep: Diluted conditioned media: 1 part media with 1% DMSO and 1 part blocking buffer; 150 μL of the 250 μL of conditioned media were used. Standard Curve Sample Prep: Prepared per manufacturer's protocol (see above). […] Final Wash and Readout: Washed wells 5× with MSD wash buffer; Added 150 μL 2×MSD read buffer; Read with MSD imager. […] Data Analysis: Aβ peptide levels for each peptide were calculated from the standard curve using the MSD software provided with the MSD 2400 Imager. Percent vehicle values for each compound dosage were then calculated and fit to a 4 parameter curve generating IC50 values.

Aβ-38 = Aβ-38 level in conditioned media of 2B7 cells, MSD 3-PLEX ELISA
Method: as §1

Aβ-40 = Aβ-40 level in conditioned media of 2B7 cells, MSD 3-PLEX ELISA
Method: as §1

SMILES: CC(C)[C@@H](OC(=O)N1CCC1)[C@H]1C[C@@H](C)[C@H]2[C@H](O1)[C@H](O)[C@@]1(C)[C@@H]3CC[C@H]4C(C)(C)[C@@H](O[C@H]5CN([C@@H]6CCNC6=O)CCO5)CC[C@@]45C[C@@]35CC[C@]21C [Compound I-1]
- IC50 (Aβ-42; inflection of 4 parameter curve, read-out: Aβ 42 DR IC50 Inflection): > 5000 nM
- IC50 (Aβ-42; read-out: Aβ 42 IC50): 100 to 500 nM
- IC50 (Aβ-38; inflection of 4 parameter curve, read-out: Aβ 38 DR IC50 Inflection): > 5000 nM
- IC50 (Aβ-38; read-out: Aβ 38 IC50): 501 to 1000 nM
- IC50 (Aβ-40; inflection of 4 parameter curve, read-out: Aβ 40 DR IC50 Inflection): > 5000 nM
- IC50 (Aβ-40; read-out: Aβ 40 IC50): > 5000 nM
